Measurements from patent publication US20060287251A1, “Combination therapy for glycaemic control” (priority 2003, published 2006).

Assays:
[1] = target: T1, Dipeptidyl Peptidase I (cathepsin C) (Rattus norvegicus, UniProt P80067); experiment: Cross reacting enzymes: dipeptidyl peptidase I; format: biochemical; conditions: concentration range 1*10^−5 M-1*10^−7 M
T1 construct: purchased Qiagen GmbH, Hilden, Germany
T1 sequence (P80067 25-462): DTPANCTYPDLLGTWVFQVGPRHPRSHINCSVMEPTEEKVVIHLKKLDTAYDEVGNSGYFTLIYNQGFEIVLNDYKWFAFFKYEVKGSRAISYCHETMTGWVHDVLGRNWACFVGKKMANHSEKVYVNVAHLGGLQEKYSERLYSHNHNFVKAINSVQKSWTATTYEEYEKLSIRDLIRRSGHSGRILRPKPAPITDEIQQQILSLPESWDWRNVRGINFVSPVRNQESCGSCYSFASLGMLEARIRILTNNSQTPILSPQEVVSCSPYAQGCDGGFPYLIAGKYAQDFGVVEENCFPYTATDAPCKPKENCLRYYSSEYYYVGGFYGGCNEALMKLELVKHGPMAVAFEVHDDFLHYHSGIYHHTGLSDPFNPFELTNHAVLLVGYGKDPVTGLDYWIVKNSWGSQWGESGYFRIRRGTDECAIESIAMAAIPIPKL
Experimental: Glutaminyl pyrrolidine or glutaminyl thiazolidine were tested for their cross reacting potency against dipeptidyl peptidase I, prolyl oligopeptidase and prolidase.
DP I or cathepsin C is a lysosomal cysteine protease which cleaves dipeptides from the N-terminus of their substrates (Gutman, H. R. & Fruton, J. S., 1948, J Biol. Chem., 174, 851-858). It is classified as a cysteine protease. The enzyme used was purchased from Qiagen (Qiagen GmbH, Hilden, Germany). In order to get a fully active enzyme, the enzyme was diluted 1000 fold in MES buffer pH5.6 (40 mM MES, 4 mM DTT, 4 mM KCl, 2 mM EDTA, 0.015% Brij) and pre-incubated for 30 min at 30° C. 50 μL glutaminyl pyrrolidine or glutaminyl thiazolidine in a concentration range of 1*10^−5 M-1*10^−7 M were admixed with 110 μL buffer-enzyme-mixture. The assay mixture was pre-incubated at 30° C. for 15 min After pre-incubation, 100 μL histidylseryl-para-nitroanilide (2*10^−5 M) were added and measurement of yellow color development due to para-nitroaniline release was performed at 30° C. and […] for 10 min, using a plate reader (HTS7000 plus, Applied Biosystems, Weiterstadt, Germany). The IC50-values were calculated using Graphit 4.0.15 (Erithacus Software, Ltd., UK). No inhibition of the DP I enzyme activity by glutaminyl pyrrolidine or glutaminyl thiazolidine was found.

[2] = test system: diabetic Zucker rats; experiment: Dose escalation study with OGTT in fatty Zucker rats after oral administration; format: in vivo, rat
Experimental: N=30 male Zucker rats (fa/fa), mean age 11 weeks (5-12 weeks), mean body weight 350 g (150-400 g), were purchased from Charles River (Sulzfeld, Germany). After delivery they were kept for >12 weeks until nearly all fatty Zucker rats had the characteristics of manifest diabetes mellitus. A group of N=8 animals were recruited for testing three escalating doses of glutaminyl pyrrolidine vs. placebo (saline). Animals were single-caged under standardized conditions with controlled temperature (22±2° C.) on a 12/12 hours light/dark cycle (light on at 06:00 AM). Sterile standard pelleted chow (ssniff® Soest, Germany) and tap water acidified with HCl were allowed ad libitum. Fatty Zucker rats of 24-31 weeks (mean: 25 weeks) age, adapted to the housing conditions, were well prepared for the study. Catheters were implanted into the carotid artery of fatty Zucker rats under general anaesthesia (i.p. injection of 0.25 ml/kg b.w. Rompun®[2%], BayerVital, Germany and 0.5 ml/kg b.w. Ketamin 10, Atarost GmbH & Co., Twistringen, Germany). The animals were allowed to recover for one week. The catheters were flushed with heparin-saline (100 IU/ml) three times per week.
Placebo (1 ml saline, 0.154 mol/l) or escalating doses of glutaminyl pyrrolidine (5, 15 and 50 mg/kg b.w.) were administered to groups of N=8 fatty Zucker rats. 375 mg of glutaminyl pyrrolidine were dissolved in 1000 μl DMSO (E. Merck, Darmstadt; Germany [Dimethyl sulfoxide p.a.]). 10 mL saline was added and 1 ml aliquots, each containing 34.09 mg of glutaminyl pyrrolidine, were stored at −20° C. For preparation of the test substance, dose dependent aliquots were diluted in saline. After overnight fasting, placebo or test substance were administered to the fatty Zucker rats via feeding tube orally (15 G, 75 mm; Fine Science Tools, Heidelberg, Germany) at −10 min An oral glucose tolerance test (OGTT) with 2 g/kg b.w. glucose (40% solution, B. Braun Melsungen, Melsungen, Germany) was administered at ±O min via a second feeding tube. Venous blood samples from the tail veins were collected at −30 min, −15 min, ±0 min and at 5, 10, 15, 20, 30, 40, 60, 90 and 120 min into 20 lμl glass capillaries, which were placed in standard tubes filled with 1 mL solution for blood glucose measurement. All blood samples were labelled with Code number, Animal Number, Date of sampling and Time of sampling.
Glucose levels were measured using the glucose oxidase procedure (Super G Glucose analyzer; Dr. Müller Gerältebau, Freital, Germany).
Statistical evaluations and graphics were performed with PRISM® 3.02 (GraphPad Software, Inc.). All parameters were analysed in a descriptive manner including mean and SD. […]

[3] = test system: Zucker (fa/fa) rats; experiment: Combination therapy of glutaminyl thiazolidine with other oral antidiabetics in Zucker (fa/fa) rats; format: in vivo, rat; conditions: after 14 days subchronic medication; versus Control; GT 60 mg/kg b.w. b.i.d. oral
Experimental: Standard pelleted chow (ssniff®, Soest, Germany) and tap water acidified with HCl were allowed ad libitum. At the age of 12 weeks the animals (N=42) were divided in random order into six experimental groups to be medicated.
During the two weeks of medication morning blood glucose was measured before the 08:00 AM medication at Monday, Wednesday and Friday.
A second OGTT was performed after two weeks of medication (Day 15).

[4] = 5, 15 and 50 mg/kg b.w. oral (dose escalation)

Row | Compound | inhibition of the DP I enzyme activity [1] | glucose tolerance in OGTT ([2]; 5 mg/kg b.w. oral, OGTT 2 g/kg glucose) | blood glucose levels and glucose tolerance in OGTT ([2]; 15 mg/kg and 50 mg/kg b.w. oral, OGTT 2 g/kg glucose) | blood glucose levels and glucose tolerance in OGTT [2, 4] | glucose tolerance, OGTT-2 [3]
1 | NC(=O)CC[C@H](N)C(=O)N1CCCC1 [glutaminyl pyrrolidine] | No inhibition | limited improvement of glucose tolerance | Significant lowering of elevated blood glucose levels and improvement of glucose tolerance | dose dependent lowering of elevated blood glucose levels | 
2 | NC(=O)CC[C@H](N)C(=O)N1CCSC1 [glutaminyl thiazolidine] | No inhibition |  |  | dose dependent lowering of elevated blood glucose levels and improvement of glucose tolerance | improved glucose tolerance
